{"source": "patent US20230073855A1", "about": "“SOFT GEL CAPSULE COMPRISING A SELECTIVE ESTROGEN RECEPTOR MODULATOR” (PHARMATHEN S.A., priority 2018, published 2023)", "key": {"[1]": {"assay": "physchem", "conditions": "thermodynamic from solid", "procedure": "(§1) In order to investigate drug solubility in SMEDDS, excess amount of drug was added to few mL of each excipient, placed in small bottles and the mixture was vortexed, in room temperature to facilitate solubilization.\nTween 80® and Tween 20® were used as surfactants, Transcutol® along with PG 200 and PEG 600 were used as co-surfactants."}, "[2]": {"assay": "physchem", "conditions": "thermodynamic from solid", "remark": "listed apart in the source", "method": "The solubility is calculated by the API quantity dissolved in 5 mL of each excipient."}, "[3]": {"conditions": "cited from earlier work"}, "[4]": {"assay": "physchem", "conditions": "oil or lipid, thermodynamic from solid, Dubcare GPE 810 ®/(Tween 80 ®/PEG 600)", "procedure": "as §1\nThe solubility of Dubcare GPR 810® in different oil/(S/CS) was tested. […] The S/CS ration was kept constant at 1/1."}}, "data": [{"smiles": "OCCOc1ccc(/C(=C(/CCCl)c2ccccc2)c2ccccc2)cc1", "note": "[Ospemifene]", "values": [{"measurement": "solubility", "setting": "[1]; organic solvent or mixture, Tween 20 ®/Transcutol ®, ratio S/CS 1:1", "value": 210, "unit": "mg/mL"}, {"measurement": "solubility", "setting": "[1]; organic solvent or mixture, Tween 20 ®/Transcutol ®, ratio S/CS 1:2", "value": 240, "unit": "mg/mL"}, {"measurement": "solubility", "setting": "[1]; organic solvent or mixture, Tween 20 ®/Transcutol ®, ratio S/CS 2:1", "value": 190, "unit": "mg/mL"}, {"measurement": "solubility", "setting": "[1]; surfactant/co-surfactant mixture Tween 20/PG 200, S/CS 1:1, organic solvent or mixture, Tween 20 ®/PG 200, ratio S/CS 1:1", "value": 110, "unit": "mg/mL"}, {"measurement": "solubility", "setting": "[1]; surfactant/co-surfactant mixture Tween 20/PG 200, S/CS 1:2, organic solvent or mixture, Tween 20 ®/PG 200, ratio S/CS 1:2", "value": 120, "unit": "mg/mL"}, {"measurement": "solubility", "setting": "[1]; surfactant/co-surfactant mixture Tween 20/PG 200, S/CS 2:1, organic solvent or mixture, Tween 20 ®/PG 200, ratio S/CS 2:1", "value": 120, "unit": "mg/mL"}, {"measurement": "solubility", "setting": "[1]; surfactant/co-surfactant mixture Tween 20/PG 600, S/CS 1:1, organic solvent or mixture, Tween 20 ®/PG 600, ratio S/CS 1:1", "value": 140, "unit": "mg/mL"}, {"measurement": "solubility", "setting": "[1]; surfactant/co-surfactant mixture Tween 20/PG 600, S/CS 1:2, organic solvent or mixture, Tween 20 ®/PG 600, ratio S/CS 1:2", "value": 140, "unit": "mg/mL"}, {"measurement": "solubility", "setting": "[1]; surfactant/co-surfactant mixture Tween 20/PG 600, S/CS 2:1, organic solvent or mixture, Tween 20 ®/PG 600, ratio S/CS 2:1", "value": 140, "unit": "mg/mL"}, {"measurement": "solubility", "setting": "[1]; surfactant/co-surfactant mixture Tween 80/PEG 600, S/CS 1:1, organic solvent or mixture, Tween 80 ®/PEG 600, ratio S/CS 1:1", "value": 140, "unit": "mg/mL"}, {"measurement": "solubility", "setting": "[1]; surfactant/co-surfactant mixture Tween 80/PEG 600, S/CS 1:2, organic solvent or mixture, Tween 80 ®/PEG 600, ratio S/CS 1:2", "value": 120, "unit": "mg/mL"}, {"measurement": "solubility", "setting": "[1]; surfactant/co-surfactant mixture Tween 80/PEG 600, S/CS 2:1, organic solvent or mixture, Tween 80 ®/PEG 600, ratio S/CS 2:1", "value": 140, "unit": "mg/mL"}, {"measurement": "solubility", "setting": "[2]; Castor oil #1 (neat excipient), oil or lipid, in Castor oil #1, room temperature", "value": 60, "unit": "mg/mL"}, {"measurement": "solubility", "setting": "[2]; Castor oil #2 (neat excipient), oil or lipid, in Castor oil #2, room temperature", "value": 60, "unit": "mg/mL"}, {"measurement": "solubility", "setting": "[2]; Dubcare GPE 810 (neat excipient), organic solvent or mixture, in Dubcare GPE 810 ®, room temperature", "value": 180, "unit": "mg/mL"}, {"measurement": "solubility", "setting": "[2]; Ethyl Oleate (neat excipient), oil or lipid, in Ethyl Oleate, room temperature", "value": 20, "unit": "mg/mL"}, {"measurement": "solubility", "setting": "[2]; Isopropyl myristate (neat excipient), oil or lipid, in Isopropyl myristate, room temperature", "value": 150, "unit": "mg/mL"}, {"measurement": "solubility", "setting": "[2]; Labrafac Lipophile (neat excipient), oil or lipid, in Labrafac Lipophile ®, room temperature", "value": 100, "unit": "mg/mL"}, {"measurement": "solubility", "setting": "[2]; Miglyol 812 (neat excipient), oil or lipid, in Miglyol 812, room temperature", "value": 60, "unit": "mg/mL"}, {"measurement": "solubility", "setting": "[2]; Oleic acid (neat excipient), oil or lipid, in Oleic acid, room temperature", "value": 10, "unit": "mg/mL"}, {"measurement": "solubility", "setting": "[2]; Propylene glycol (neat excipient), organic solvent or mixture, in Propylene glycol, room temperature", "value": 50, "unit": "mg/mL"}, {"measurement": "solubility", "setting": "[2]; Sesame oil (neat excipient), oil or lipid, in Sesame oil, room temperature", "value": 60, "unit": "mg/mL"}, {"measurement": "solubility", "setting": "[2]; Transcutol (neat excipient), organic solvent or mixture, in Transcutol ®, room temperature", "value": 280, "unit": "mg/mL"}, {"measurement": "solubility", "setting": "[2]; Tween 20 (neat excipient), organic solvent or mixture, in Tween 20 ®, room temperature", "value": 150, "unit": "mg/mL"}, {"measurement": "solubility", "setting": "[2]; Tween 80 (neat excipient), organic solvent or mixture, in Tween 80 ®, room temperature", "value": 100, "unit": "mg/mL"}, {"measurement": "solubility", "setting": "[2]; Tyloxapol (neat excipient), organic solvent or mixture, in Tyloxapol, room temperature", "value": 140, "unit": "mg/mL"}, {"measurement": "solubility", "setting": "[2]; organic solvent or mixture, in Kolliphpor ® RH40, room temperature", "value": 180, "unit": "mg/mL"}, {"measurement": "solubility", "setting": "[2]; organic solvent or mixture, in PG 200, room temperature", "value": 100, "unit": "mg/mL"}, {"measurement": "solubility", "setting": "[2]; organic solvent or mixture, in PG 600, room temperature", "value": 160, "unit": "mg/mL"}, {"measurement": "Time to peak median serum concentration", "setting": "[3]; fasting postmenopausal women", "value": "approximately two"}, {"measurement": "Increase of bioavailability with food intake", "setting": "[3]; with food intake, EP1713458", "value": "two- to three"}, {"measurement": "solubility", "setting": "[4]; ratio oil/(S/CS) 1:9, S/CS 1/1", "value": 160, "unit": "mg/mL"}, {"measurement": "solubility", "setting": "[4]; ratio oil/(S/CS) 2:8, S/CS 1/1", "value": 150, "unit": "mg/mL"}, {"measurement": "solubility", "setting": "[4]; ratio oil/(S/CS) 3:7, S/CS 1/1", "value": 150, "unit": "mg/mL"}, {"measurement": "solubility", "setting": "[4]; ratio oil/(S/CS) 7:3, S/CS 1/1", "value": 80, "unit": "mg/mL"}, {"measurement": "solubility", "setting": "[4]; ratio oil/(S/CS) 8:2, S/CS 1/1", "value": 60, "unit": "mg/mL"}]}]}
